# ChEMBL document CHEMBL3638846, “Galactoside inhibitors of galectins” (2014)
# Assays:
# Galectin-3 = Galectin-3 (Homo sapiens, UniProt P17931); assay: (§1) Fluorescence Polarization-Based Assay: Compounds 7, 15-19, and 22 were evaluated for their efficiency in inhibiting galectin-1 and galectin-3 in a known fluorescence polarization-based assay (Sörme et al., 2003a, 2004). All compounds were potent inhibitors of galectin-1 and galectin-3 with dissociation constant in the low μM or nM range. This evidences that a properly structured cyclohexane can mimic the subsite D-binding saccharide moiety, e.g. N-acetylglucosamine in the disaccharide N-acetyllactosamine.
# Galectin-1 = Galectin-1 (Homo sapiens, UniProt P09382); assay: as §1
# Chain of Galectin-1 (P09382 whole entry): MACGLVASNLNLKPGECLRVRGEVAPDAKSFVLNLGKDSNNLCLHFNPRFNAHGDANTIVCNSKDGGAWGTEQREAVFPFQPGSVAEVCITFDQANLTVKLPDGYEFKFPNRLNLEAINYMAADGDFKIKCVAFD
# Chain of Galectin-3 (P17931 whole entry): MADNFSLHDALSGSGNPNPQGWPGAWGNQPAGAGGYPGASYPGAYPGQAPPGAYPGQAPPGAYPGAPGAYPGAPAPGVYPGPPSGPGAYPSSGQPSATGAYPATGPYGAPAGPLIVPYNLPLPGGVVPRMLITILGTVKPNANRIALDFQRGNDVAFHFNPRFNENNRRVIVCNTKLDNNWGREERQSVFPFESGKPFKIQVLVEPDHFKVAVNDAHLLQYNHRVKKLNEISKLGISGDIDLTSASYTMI
smiles,measurement,setting,value
CO[C@@H]1OC(CO)[C@@H](O[C@@H]2OC(CO)[C@H](O)[C@H](O)C2O)[C@H](O)C1NC(C)=O (some centres not stated),Kd,Galectin-3,59 µM
same,Kd,Galectin-1,65 µM
